The values that follow come from EP4219453A1 (Sichuan Kelun-Biotech Biopharmaceutical Co., Ltd., priority 2020, dated 2022).

One data set addresses T1, TGFβR1 (Homo sapiens, UniProt P36897).
T1 sequence (P36897 34-503): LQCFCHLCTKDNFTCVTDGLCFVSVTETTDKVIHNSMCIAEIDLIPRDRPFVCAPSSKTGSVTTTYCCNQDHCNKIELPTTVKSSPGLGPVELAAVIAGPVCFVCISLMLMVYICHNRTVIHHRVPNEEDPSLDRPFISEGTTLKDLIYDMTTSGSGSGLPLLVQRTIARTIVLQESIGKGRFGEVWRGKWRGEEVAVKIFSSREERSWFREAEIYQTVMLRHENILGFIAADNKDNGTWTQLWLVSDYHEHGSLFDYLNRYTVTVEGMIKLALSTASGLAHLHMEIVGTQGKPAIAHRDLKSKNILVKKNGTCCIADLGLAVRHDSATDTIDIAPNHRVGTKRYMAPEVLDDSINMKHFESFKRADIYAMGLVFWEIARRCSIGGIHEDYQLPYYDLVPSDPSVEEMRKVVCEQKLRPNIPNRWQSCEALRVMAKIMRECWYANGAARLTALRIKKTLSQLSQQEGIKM
Briefly: In vitro enzymatic activity inhibition test (TGFβR1), ADP-Glo Kinase Detection Kit. Type of data set: biochemical. The settings on record: calculated from percent inhibition at 1000 nM, 100 nM, 10 nM. Here is the method:
Test Example 1: In vitro enzymatic activity inhibition test (TGFβR1).
Experimental method: According to the instructions of ADP-Glo™ Kinase Detection Kit (Promega), the inhibitory effect of the compounds of the present invention on the enzymatic activity of TGFβR1 was determined, and the steps were as follows: TGFβR1 enzyme were pre-incubated with different concentrations of test compounds (1000 nM, 100 nM, 10 nM) at 30°C for 30 min, TGFβR1 peptide and adenosine triphosphate (ATP) were added to initiate the reaction. The incubation was performed at 30°C for 3 h, followed by an addition of ADP-Glo™ reagent and incubated at room temperature for 90 min, kinase detection reagent was then added. Chemiluminescence signal values were detected after incubation at room temperature for another 30 min.
When the percent inhibition rate was between 30% and 80%, the median inhibitory concentration (IC50) or range of the compound was calculated according to the following formula: IC50 = X × (1 - percent inhibition rate (%)) / percent inhibition rate (%), wherein X is the concentration of the compound at which the inhibition rate is between 30% and 80%.

The next data set addresses T2, hERG (Homo sapiens, UniProt Q12809).
T2 construct: purchased ThermoFisher
The data set can be described thus: Biochemical hERG inhibition test, Predictor hERG fluorescence polarization kit. The settings on record: hERG cell membrane, competition with Tracer 1 nM, 10 µM and 1 µM test compound, 2 h. Type of data set: binding. Here is the method:
Test Example 4: Biochemical hERG inhibition test
• 1. Test system: Kit: Predictor™ hERG fluorescence polarization detection kit (ThermoFisher), the kit contained the following components: positive control compound hERG potassium channel blocker E4031; hERG cell membrane; affinity tracer Tracer; and hERG buffer. • 2. Test parameters: hERG concentration: 1×; Tracer concentration: 1 nM; incubation time: 2 h; BMG PHERAstar FSFP. • 3.
Positive control group: 30 µM positive control compound E4031 was used to replace the test compound, and the experimental method was the same as that of the test group.
Blank control group: hERG buffer was used to replace the test compound without the addition of hERG cell membrane, and the experimental method was the same as that of the test group.
According to the data ratio, the percent inhibition rates (%) of the compounds of the present invention to hERG at different concentrations were calculated, and the ranges of the half inhibitory concentration (IC50) of the compounds were determined.

The target in a further data set is T3, CYP2D6 (Homo sapiens, UniProt P10635).
T3 construct: purchased Promega
Briefly: CYP enzyme inhibition test, P450-Glo CYP2D6 Screening System. Type of data set: in vitro ADME. The settings on record: Luciferin-ME EGE 3 µM. The procedure: Test Example 5: CYP enzyme (Cytocrome P450) inhibition test
• 1. Test system: • P450-Glo™ CYP1A2 Screening System (Promega); • P450-Glo™ CYP2D6 Screening System (Promega); • P450-Glo™ CYP3A4 Screening System (Promega). • 2. Test instrument: BMG PHERAstar FS Luminescent. • 3. Test method: The test was carried out according to the kit instructions, and the steps were as follows: 3.1. Inhibition of CYP1A2:
Test group: The test compound of different concentration was added to the microplate, and Luciferin-ME EGE (3 µM), K3PO4 (100 mM) and CYP2D6 (5 nM) were added to each well, and pre-incubated at room temperature for 10 min, followed by an addition of the NADPH regeneration system, and reacted at 37°C for 30 min, an equal volume of detection buffer was added at last, and incubated at room temperature for 20 min, and then chemiluminescence detection was performed.
Negative control group: The experimental method was the same as that of the test group, but the test compound was not added.
Blank control group: The experimental method was the same as that of the test group, but the test compound was not added, and CYP2D6 Membrance (5 nM) was used instead of CYP2D6.
The median inhibitory concentration (IC50) or range of the compound was estimated according to the inhibition rate of CYP enzymes at different concentrations: IC50 = X × (1 - percent inhibition rate (%)) / percent inhibition rate (%), wherein X is the test concentration of the compound.

Data set [1] concerns TGFβ/Smads signaling pathway in HEK293-SBE cells. Briefly: In vitro cell activity inhibition test, Bright-Glo luciferase reporter in HEK293-SBE cells. Type of data set: cell-based. The note with it: TGFβ 0.5 ng/ml, luciferase reporter gene method. Here is the method: Test Example 3: In vitro cell activity inhibition test
Experimental method: According to the instructions of Bright-Glo™ luciferase detection kit (Promega), the inhibitory effect of the compounds of the present invention on TGFβ/Smads signaling pathway in HEK293-SBE cells was determined. The steps were as follows: HEK293-SBE cells (Bps bioscience) were added to a 96-well plate (10% FBS medium), 30,000/well, and cultured overnight at 37°C and 5% CO2. The medium was changed to 0.5% FBS medium, and the test compound diluted in 0.5% FBS medium was added. The highest final concentration of the test compound was 10 µM with 4-fold dilution, and a total of 8 concentration gradients. After 4-5 hours of incubation, 10 µl of TGFβ was added. The final concentration of TGFβ was 0.5 ng/ml. 10 µl of medium added in replace of TGFβ was the negative control. In the blank control, no test compound was added, and TGFβ was added. Bright Glo reagent was added to each well, and the chemiluminescence signal value was read on a microplate reader.
The percent inhibition rates of the test compound at different concentrations were plotted against the compound concentrations, the curve was fitted according to the four-parameter model, and the IC50 value was calculated by the following formula: y = Min + (Max - Min) / (1 + (x / IC50) ^ (-Hillslope)), wherein: y is percentage inhibition rate; Max and Min are the maximum and minimum values of the fitted curve, respectively; x is the logarithmic concentration of compound; and Hillslope is the slope of the curve.
For orientation: A reporter such as luciferase makes a cellular process visible.

T3 sequence (P10635 whole entry): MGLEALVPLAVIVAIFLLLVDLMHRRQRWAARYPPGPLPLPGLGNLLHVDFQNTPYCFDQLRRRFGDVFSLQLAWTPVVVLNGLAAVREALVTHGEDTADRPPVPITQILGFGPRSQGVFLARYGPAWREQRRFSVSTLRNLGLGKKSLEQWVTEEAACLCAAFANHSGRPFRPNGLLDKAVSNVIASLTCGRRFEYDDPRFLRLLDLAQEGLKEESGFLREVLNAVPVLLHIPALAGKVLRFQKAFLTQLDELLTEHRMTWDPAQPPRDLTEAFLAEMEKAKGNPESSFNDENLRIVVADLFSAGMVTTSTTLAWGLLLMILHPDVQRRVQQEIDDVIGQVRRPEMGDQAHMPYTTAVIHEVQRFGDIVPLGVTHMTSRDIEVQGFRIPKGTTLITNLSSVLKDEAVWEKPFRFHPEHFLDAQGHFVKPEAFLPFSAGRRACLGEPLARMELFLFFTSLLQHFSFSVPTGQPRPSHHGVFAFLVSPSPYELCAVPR
T2 sequence (Q12809 whole entry): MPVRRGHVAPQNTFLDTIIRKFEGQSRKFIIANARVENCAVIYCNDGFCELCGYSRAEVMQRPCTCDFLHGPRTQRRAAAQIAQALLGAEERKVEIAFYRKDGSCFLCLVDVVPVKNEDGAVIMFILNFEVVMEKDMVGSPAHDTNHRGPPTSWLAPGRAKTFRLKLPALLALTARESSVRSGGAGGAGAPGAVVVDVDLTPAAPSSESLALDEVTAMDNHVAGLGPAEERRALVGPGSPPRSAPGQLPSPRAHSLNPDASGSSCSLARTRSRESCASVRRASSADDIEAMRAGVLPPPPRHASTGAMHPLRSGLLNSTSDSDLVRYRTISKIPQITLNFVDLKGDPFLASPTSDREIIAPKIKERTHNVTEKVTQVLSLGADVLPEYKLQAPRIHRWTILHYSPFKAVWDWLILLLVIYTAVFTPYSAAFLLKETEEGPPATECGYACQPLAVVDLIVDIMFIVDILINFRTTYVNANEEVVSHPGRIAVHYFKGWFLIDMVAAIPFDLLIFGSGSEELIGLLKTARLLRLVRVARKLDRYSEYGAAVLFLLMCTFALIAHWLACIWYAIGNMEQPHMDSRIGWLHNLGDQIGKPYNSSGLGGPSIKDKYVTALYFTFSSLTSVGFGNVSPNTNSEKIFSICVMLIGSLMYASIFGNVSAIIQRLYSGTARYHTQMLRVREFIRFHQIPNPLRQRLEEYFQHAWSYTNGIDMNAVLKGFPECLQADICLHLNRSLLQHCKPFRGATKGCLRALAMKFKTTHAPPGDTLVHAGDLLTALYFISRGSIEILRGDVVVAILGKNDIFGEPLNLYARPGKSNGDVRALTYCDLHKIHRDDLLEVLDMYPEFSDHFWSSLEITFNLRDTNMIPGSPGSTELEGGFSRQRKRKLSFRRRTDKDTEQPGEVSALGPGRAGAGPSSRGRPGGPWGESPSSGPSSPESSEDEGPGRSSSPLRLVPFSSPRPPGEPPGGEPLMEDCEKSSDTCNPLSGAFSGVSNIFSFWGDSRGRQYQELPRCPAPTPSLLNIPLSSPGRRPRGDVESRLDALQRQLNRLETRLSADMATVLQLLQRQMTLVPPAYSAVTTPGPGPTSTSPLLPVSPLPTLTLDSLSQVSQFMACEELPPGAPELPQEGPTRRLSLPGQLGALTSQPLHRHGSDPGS

One may read the IC50 as the concentration needed to halve the response being measured. `Cc1cccc(-n2nc3c(c2-c2ccn4nccc4c2)CCC3)n1` [Example 4, 5-[2-(6-methylpyridin-2-yl)-2,4,5,6-tetrahydrocyclopenteno [c]pyrazol-3-yl]pyrazolo[1,5-a]pyridine]: the half-inhibitory concentration (IC50) on TGFβR1 is 12 ± 5.4 nM; at hERG, above 10 µM; against CYP2D6 it was above 10 µM; in data set [1], 35 ± 2.69 nM.
As for `Cc1cccc(-n2nc3c(c2-c2ccn4ncc(C(N)=O)c4c2)CCC3)n1` [Example 6, 5-[2-(6-methylpyridin-2-yl)-2,4,5,6-tetrahydrocyclopenteno[c]pyrazol-3-yl]pyrazolo[1,5-a]pyridine-3-carboxamide], the IC50 at TGFβR1 was 2.36 ± 0.68 nM; on hERG, above 10 µM; at CYP2D6 (30 min) it was above 10 µM; in data set [1] it was 20.1 ± 1 nM.
As to `CNc1cc(-c2ccn3ncc(C(N)=O)c3c2)n(-c2cccc(C)n2)n1` [Example 8, 5-(3-(methylamino)-1-(6-methylpyridin-2-yl)-1H-pyrazol-5-yl)pyrazolo[1,5-a]pyridine-3-carboxamide], the IC50 at TGFβR1 is 8.27 ± 0.11 nM; on hERG, above 10 µM; at CYP2D6, above 10 µM; in data set [1], 29.9 ± 1.27 nM.
`Cc1cccc(-n2nc(NC(C)c3ccc(F)cc3)cc2-c2ccn3ncc(C(N)=O)c3c2)n1` (stereo not drawn) [Example 10, 5-(3-(1-(4-fluorophenyl)ethylamino)-1-(6-methylpyridin-2-yl)-1H-pyrazol-5-yl)pyridino[1,5-a]pyridine-3-carboxamide]: the IC50 on TGFβR1 was 4.82 ± 0.51 nM; on hERG it was above 10 µM; at CYP2D6, above 10 µM; in data set [1], 43.1 ± 4.19 nM.
Regarding `Cc1cccc(-n2nc(NCc3ccc(F)cc3)cc2-c2ccn3ncc(C(N)=O)c3c2)n1` [Example 11, 5-(3-(4-fluorobenzylamino)-1-(6-methylpyridin-2-yl)-1H-pyrazol-5-yl)pyrazolo[1,5-a]pyridine-3-carboxamide], the half-inhibitory concentration (IC50) on TGFβR1 was 0.5 ± 0.21 nM; at hERG, above 10 µM; against CYP2D6, above 10 µM; in data set [1], 19.4 ± 1.52 nM.
`Cc1cccc(-n2nccc2-c2ccn3ncc(C(N)=O)c3c2)n1` [Example 12, 5-(1-(6-methylpyridin-2-yl)-1H-pyrazol-5-yl)pyrazolo[1,5-a]pyridine-3-carboxamide]: the IC50 at TGFβR1 is 9.39 ± 2.15 nM; on hERG it was above 10 µM; against CYP2D6, above 10 µM; in data set [1], 26.6 ± 5.43 nM.
